Measured values taken from patent EP3722296B1, “DIHYDRONAPHTHYRIDINES AND RELATED COMPOUNDS USEFUL AS KINASE INHIBITORS FOR THE TREATMENT OF PROLIFERATIVE DISEASES” (Deciphera Pharmaceuticals, LLC, priority 2012, dated 2013).

Columns and labels:
c-KIT D816V kinase = biological target: T1, c-KIT D816V kinase (Homo sapiens, UniProt P10721, D816V); test: c-KIT D816V kinase Assay; type: biochemical; conditions: enzymatic assay, ATP 200 uM
T1 construct: residues T544-V976 with N-terminal GST fusion; purchased deCODE Biostructures
T1 sequence (P10721 544-976 D816V): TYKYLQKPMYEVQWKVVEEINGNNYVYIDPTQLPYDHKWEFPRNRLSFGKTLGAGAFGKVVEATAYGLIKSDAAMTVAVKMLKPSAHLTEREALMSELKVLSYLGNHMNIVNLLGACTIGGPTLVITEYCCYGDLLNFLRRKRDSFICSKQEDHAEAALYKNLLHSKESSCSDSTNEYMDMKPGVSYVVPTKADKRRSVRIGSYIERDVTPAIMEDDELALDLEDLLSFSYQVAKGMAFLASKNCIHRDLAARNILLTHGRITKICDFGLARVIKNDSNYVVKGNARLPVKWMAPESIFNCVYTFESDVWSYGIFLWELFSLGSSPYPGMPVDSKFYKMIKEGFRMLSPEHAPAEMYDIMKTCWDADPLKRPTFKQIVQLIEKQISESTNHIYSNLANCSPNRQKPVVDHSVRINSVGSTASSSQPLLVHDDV
In short: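 Coupled assay in which NADH oxidation was tracked as decreasing absorbance at 340 nm, continuously for 5 hours at 30 °C after adding serially diluted compound. Enzyme: cKit residues T544-V976 with N-terminal tag, GST fusion and TEV cleavage site.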

c-KIT VVDV kinase = biological target: T2, c-KIT VVDV kinase (Homo sapiens, UniProt P10721, D816V/DEL559-560); test: cKIT-VVDV kinase Assay; type: biochemical; conditions: enzymatic assay; V559+V560 deletions and D816V mutation
T2 construct: This construct contains residues T544-V976 of cKit; GST (N); TEV cleavage site (internal); purchased deCODE Biostructures
T2 sequence (P10721 with tags, fused parts or gaps DEL559-560/D816V): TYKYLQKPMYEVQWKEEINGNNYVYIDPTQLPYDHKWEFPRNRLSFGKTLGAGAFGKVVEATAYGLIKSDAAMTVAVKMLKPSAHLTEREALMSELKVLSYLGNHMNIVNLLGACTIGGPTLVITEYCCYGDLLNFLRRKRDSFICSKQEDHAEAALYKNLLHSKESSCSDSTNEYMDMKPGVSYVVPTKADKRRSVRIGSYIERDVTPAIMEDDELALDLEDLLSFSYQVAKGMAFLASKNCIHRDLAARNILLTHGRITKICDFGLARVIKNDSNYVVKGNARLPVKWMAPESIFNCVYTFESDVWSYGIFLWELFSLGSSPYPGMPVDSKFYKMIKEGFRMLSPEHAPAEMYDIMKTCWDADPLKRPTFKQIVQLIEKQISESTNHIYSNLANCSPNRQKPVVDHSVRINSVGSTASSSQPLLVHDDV
In short: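 Coupled spectrophotometric format: kinase activity followed as NADH oxidation, loss of absorbance at 340 nm. Serially diluted compound mixed with the reaction mixture to start; read continuously for 5 h at 30 °C.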

Phospho-KIT (Tyr719) = test: GIST48 KIT Western Blot; type: cell-based; conditions: GIST48 cells, 4 hours, serum-free medium; read-out: pKIT suppression by western blot analysi GIST48
In short: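 Phospho-KIT (Tyr719) was immunoblotted on PVDF and imaged in fluorescence mode after ECL Plus, with stripping and reprobing for total KIT. IC50 values were derived from the blot signals.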

GIST T1 cells = test: GIST T1 Cell Proliferation Assay; type: cell-based; conditions: Homo sapiens, GISTT1, 72 h, 68 hours + 4 hours resazurin

| SMILES | IC50 (c-KIT D816V kinase) | IC50 (c-KIT VVDV kinase) | IC50 (Phospho-KIT (Tyr719)) | IC50 (GIST T1 cells) |
| --- | --- | --- | --- | --- |
| CCn1c(=O)c(-c2cc(NC(=O)Nc3ccccc3F)c(F)cc2Cl)cc2cnc(NC)cc21 [Example 25, 1-[4-chloro-5-(1-ethyl-7-methylamino-2-oxo-1,2-dihydro-[1,6]naphthyridin-3-yl)-2-fluoro-phenyl]-3-(2-fluoro-phenyl)-urea] | 10 to 100 nM | < 10 nM | 10 to 100 nM | < 10 nM |
| CCn1c(=O)c(-c2cc(NC(=O)Nc3cc(F)cc(F)c3)c(F)cc2Cl)cc2cnc(NC)cc21 [Example 55, 1-(4-chloro-5-(1-ethyl-7-(methylamino)-2-oxo-1,2-dihydro-1,6-naphthyridin-3-yl)-2-fluorophenyl)-3-(3,5-difluorophenyl)urea] | 10 to 100 nM | 10 to 100 nM | > 1000 nM | < 10 nM |
| CCn1c(=O)c(-c2cc(NC(=O)Nc3cccc(F)c3)c(F)cc2Cl)cc2cnc(NC)cc21 [Example 24, 1-[4-chloro-5-(1-ethyl-7-methylamino-2-oxo-1,2-dihydro-[1,6]naphthyridin-3-yl)-2-fluoro-phenyl]-3-(3-fluoro-phenyl)-urea] | < 10 nM | < 10 nM | 10 to 100 nM | < 10 nM |
| CCn1c(=O)c(-c2cc(NC(=O)Nc3csc4ccccc34)c(F)cc2C)cc2cnc(NC)cc21 [Example 59, 1-(benzo[b]thiophen-3-yl)-3-(5-(1-ethyl-7-(methylamino)-2-oxo-1,2-dihydro-1,6-naphthyridin-3-yl)-2-fluoro-4-methylphenyl)urea] | 10 to 100 nM | 10 to 100 nM | 10 to 100 nM | 10 to 100 nM |
| CCn1c(=O)c(-c2cc(NC(=O)Nc3cccc(F)c3F)c(F)cc2Cl)cc2cnc(NC)cc21 [Example 4, 1-(4-chloro-5-(1-ethyl-7-(methylamino)-2-oxo-1,2-dihydro-1,6-naphthyridin-3-yl)-2-fluorophenyl)-3-(2,3-difluorophenyl)urea] | 10 to 100 nM | < 10 nM | 10 to 100 nM | < 10 nM |
| CCn1c(=O)c(-c2cc(NC(=O)Nc3csc4ccccc34)c(F)cc2Cl)cc2cnc(NC)cc21 [Example 32, 1-(benzo[b]thiophen-3-yl)-3-(4-chloro-5-(1-ethyl-7-(methylamino)-2-oxo-1,2-dihydro-1,6-naphthyridin-3-yl)-2-fluorophenyl)urea] | < 10 nM | < 10 nM | < 10 nM | < 10 nM |
